Counter-ions that a name gives are not always drawn.
What follows are compounds tested against T1, RET (Homo sapiens, UniProt P07949) (assay: Inhibition of RET kinase activity, recombinant RET method (Kinase-Glo)). Conditions: RET 2 μg/ml, poly-EY4 substrate, 20 μM ATP, two hours at 30° C.
T1 construct: purchased Upstate 14-570MG
Format: biochemical
Protocol: The inhibition of the kinase activity of the compounds of the invention is assessed by measuring their IC50 on RET.
where: • Y is the value of the luminescence • X is the logarithm of the concentration of the compound • Bottom is the minimum Y value • Top is the maximum Y value • LogIC50 is the value of X when Y is 50% from Top—Bottom.
The quantity of RET required is 2 μg/ml.
The following buffer is used for dilution of RET: 20 mM MOPS/NaOH pH7.0, 1 mM EDTA, 5% glycerol, 0.01% Brij35 (Sigma B4184), 0.1% 2-mercaptoethanol, 1 mg/ml BSA (Sigma A3059-10G).
The dilution of the compounds of the invention is distributed so as to obtain a scale of final concentrations between 10 nM and 30 μM.
After incubation of the reaction mixture for two hours at 30° C., the level of ATP that remains is assayed using the Kinase-Glo Luminescent Kinase Assay (Promega #V6712) according to the conditions recommended by the supplier. The luminescence induced is read in a plate reader (Envision-Perkin Elmer).

T1 sequence (P07949 29-1114): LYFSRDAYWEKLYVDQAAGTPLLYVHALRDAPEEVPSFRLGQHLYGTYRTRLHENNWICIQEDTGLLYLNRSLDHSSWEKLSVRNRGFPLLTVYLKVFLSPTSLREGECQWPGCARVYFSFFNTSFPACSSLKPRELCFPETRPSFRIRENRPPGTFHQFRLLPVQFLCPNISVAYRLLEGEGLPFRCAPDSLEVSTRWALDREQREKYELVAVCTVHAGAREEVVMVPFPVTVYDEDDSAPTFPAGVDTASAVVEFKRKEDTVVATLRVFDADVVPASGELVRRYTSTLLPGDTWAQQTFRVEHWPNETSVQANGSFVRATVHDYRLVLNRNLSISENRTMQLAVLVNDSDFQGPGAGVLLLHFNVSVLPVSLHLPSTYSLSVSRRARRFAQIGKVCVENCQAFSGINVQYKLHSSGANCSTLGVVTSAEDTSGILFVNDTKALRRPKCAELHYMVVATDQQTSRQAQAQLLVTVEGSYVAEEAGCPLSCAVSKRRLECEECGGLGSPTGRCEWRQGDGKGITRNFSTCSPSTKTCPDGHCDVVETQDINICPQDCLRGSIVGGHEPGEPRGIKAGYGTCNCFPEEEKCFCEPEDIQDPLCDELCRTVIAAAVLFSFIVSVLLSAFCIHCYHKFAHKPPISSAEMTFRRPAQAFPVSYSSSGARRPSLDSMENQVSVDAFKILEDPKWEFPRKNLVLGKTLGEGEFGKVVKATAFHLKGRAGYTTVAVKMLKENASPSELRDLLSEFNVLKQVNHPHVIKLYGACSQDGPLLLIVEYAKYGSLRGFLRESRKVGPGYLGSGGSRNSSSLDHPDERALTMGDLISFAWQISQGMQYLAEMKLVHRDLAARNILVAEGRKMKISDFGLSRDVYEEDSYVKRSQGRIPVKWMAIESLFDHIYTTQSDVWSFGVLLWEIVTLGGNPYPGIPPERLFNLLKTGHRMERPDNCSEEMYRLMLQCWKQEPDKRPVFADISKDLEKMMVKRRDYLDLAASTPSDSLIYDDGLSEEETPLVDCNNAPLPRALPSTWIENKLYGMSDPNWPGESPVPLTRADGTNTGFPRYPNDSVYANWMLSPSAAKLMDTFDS

IC50 [µM] | SMILES
0.1 to 1 | CCOC(=O)c1c[nH]c2c(=O)[nH]c3ccc(Sc4ccccc4)cc3c12 [Compound 220, 4-Oxo-8-phenylsulfanyl-4,5-dihydro-3H-pyrrolo[2,3-c]quinoline-1-ethyl carboxylate]
< 0.1 | CCOC(=O)c1c[nH]c2c(=O)[nH]c3ccc(S(=O)(=O)N(C)c4ccc(F)cc4)cc3c12 [Compound 13, 8-[(4-Fluorophenyl)-N-methyl-sulfamoyl)-4-oxo-4,5-dihydro-3H-pyrrolo[2,3-c]quinoline-1-ethyl carboxylate]
0.1 to 1 | C#CCN(C)S(=O)(=O)c1ccc2[nH]c(=O)c3[nH]cc(C(=O)OCCC)c3c2c1 [Compound 134, 8-(Methyl-prop-2-ynyl-sulfamoyl)-4-oxo-4,5-dihydro-3H-pyrrolo[2,3-c]quinoline-1-propyl carboxylate]
10 to 100 | CCOC(=O)c1c[nH]c2c(=O)[nH]c3ccc(-c4ccc(C#N)cc4)cc3c12 [Compound 247, 8-(4-Cyano-phenyl)-4-oxo-4,5-dihydro-3H-pyrrolo[2,3-c]quinoline-1-ethyl carboxylate]
0.1 to 1 | CCOC(=O)c1c[nH]c2c(=O)[nH]c3ccc(-c4ccc5[nH]ccc5c4)cc3c12 [Compound 252, 8-(1H-Indol-5-yl)-4-oxo-4,5-dihydro-3H-pyrrolo[2,3-c]quinoline-1-ethyl carboxylate]
< 0.1 | CCCOC(=O)c1c[nH]c2c(=O)[nH]c3ccc(S(=O)(=O)N(CC)[C@H]4CCN(C)C4)cc3c12 [Compound 161, (S)-8-[Ethyl-(1-methyl-pyrrolidin-3-yl)-sulfamoyl]-4-oxo-4,5-dihydro-3H-pyrrolo[2,3-c]quinoline-1-propyl carboxylate]
1 to 10 | CCOC(=O)c1c[nH]c2c(=O)[nH]c3ccc(-c4csc(-c5ccccc5)n4)cc3c12 [Compound 279, 4-Oxo-8-(2-phenyl-thiazol-4-yl)-4,5-dihydro-3H-pyrrolo[2,3-c]quinoline-1-ethyl carboxylate]
1 to 10 | CCOC(=O)CCNS(=O)(=O)c1ccc2[nH]c(=O)c3[nH]cc(C(=O)OCC)c3c2c1 [Compound 29, 8-(2-Ethoxycarbonyl-ethylsulfamoyl)-4-oxo-4,5-dihydro-3H-pyrrolo[2,3-c]quinoline-1-ethyl carboxylate]
10 to 100 | CN(C)CCCNC(=O)c1c[nH]c2c(=O)[nH]c3ccccc3c12 [Compound 80, N-(3-Dimethylamino-propyl)-4-oxo-4,5-dihydro-3H-pyrrolo[2,3-c]quinoline-1-carboxamide]
10 to 100 | CCOC(=O)c1c[nH]c2c(=O)[nH]c3c([N+](=O)[O-])cccc3c12 [Compound 67, 6-Nitro-4-oxo-4,5-dihydro-3H-pyrrolo[2,3-c]quinoline-1-ethyl carboxylate]
1 to 10 | CCOC(=O)c1c[nH]c2c(=O)[nH]c3ccc(-c4csc(Nc5ccc(Cl)c(Cl)c5)n4)cc3c12 [Compound 273, 8-[2-(3,4-Dichlorophenylamino)-thiazol-4-yl]-4-oxo-4,5-dihydro-3H-pyrrolo[2,3-c]quinoline-1-ethyl carboxylate]
0.1 to 1 | CCCOC(=O)c1c[nH]c2c(=O)[nH]c3ccc(S(=O)(=O)N(Cc4c[nH]cn4)C4CC4)cc3c12 [Compound 143, 8-[Cyclopropyl-(1H-imidazol-4-ylmethyl)-sulfamoyl]-4-oxo-4,5-dihydro-3H-pyrrolo[2,3-c]quinoline-1-propyl carboxylate hydrochloride]
0.1 to 1 | CCCOC(=O)c1c[nH]c2c(=O)[nH]c3ccc(S(=O)(=O)N(C)CC4OCCO4)cc3c12 [Compound 129, 8-[1,3]Dioxolan-2-ylmethyl-methyl-sulfamoyl)-4-oxo-4,5-dihydro-3H-pyrrolo[2,3-c]quinoline-1-propyl carboxylate]
0.1 to 1 | CCOC(=O)c1c[nH]c2c(=O)[nH]c3ccc(S(=O)(=O)NC)cc3c12 [Compound 27, 8-Methylsulfamoyl-4-oxo-4,5-dihydro-3H-pyrrolo[2,3-c]quinoline-1-ethyl carboxylate]
10 to 100 | CCN(CC)CCOC(=O)c1c[nH]c2c(=O)[nH]c3ccc(F)cc3c12 [Compound 100, 8-Fluoro-4-oxo-4,5-dihydro-3H-pyrrolo[2,3-c]quinoline-1-carboxylate of 2-diethylaminoethyl]
0.1 to 1 | CCOC(=O)c1c[nH]c2c(=O)[nH]c3ccc(-c4cccc5ccccc45)cc3c12 [Compound 249, 8-Naphthalen-1-yl-4-oxo-4,5-dihydro-3H-pyrrolo[2,3-c]quinoline-1-ethyl carboxylate]
1 to 10 | O=C(OCc1ccccc1)c1c[nH]c2c(=O)[nH]c3ccccc3c12 [Compound 74, 4-Oxo-4,5-dihydro-3H-pyrrolo[2,3-c]quinoline-1-carboxylate benzyl]
1 to 10 | CCOC(=O)c1c[nH]c2c(=O)[nH]c3ccc(NS(=O)(=O)c4ccc(NC(C)=O)cc4)cc3c12 [Compound 52, 8-(4-Acetylamino-benzenesulfonylamino)-4-oxo-4,5-dihydro-3H-pyrrolo[2,3-c]quinoline-1-ethyl carboxylate]
0.1 to 1 | CCCOC(=O)c1c[nH]c2c(=O)[nH]c3ccc(S(=O)(=O)NC4CC4)cc3c12 [Compound 124, 8-Cyclopropylsulfamoyl-4-oxo-4,5-dihydro-3H-pyrrolo[2,3-c]quinoline-1-propyl carboxylate]
10 to 100 | CN(c1ccc(F)cc1)S(=O)(=O)c1ccc2[nH]c(=O)c3[nH]cc(C(=O)O)c3c2c1 [Compound 103, 8-[(4-Fluorophenyl)-methyl-sulfamoyl]-4-oxo-4,5-dihydro-3H-pyrrolo[2,3-c]quinoline-1-carboxylic acid]
0.1 to 1 | CCCOC(=O)c1c[nH]c2c(=O)[nH]c3ccc(S(=O)(=O)N4CCCC(C(N)=O)C4)cc3c12 (centres unmarked) [Compound 179, 8-(3-Carbamoyl-piperidine-1-sulfonyl)-4-oxo-4,5-dihydro-3H-pyrrolo[2,3-c]quinoline-1-propyl carboxylate]
0.1 to 1 | CCOC(=O)c1c[nH]c2c(=O)[nH]c3ccc(C#CCN(C)CCC#N)cc3c12 [Compound 206, 8-{3-[(2-Cyano-ethylmethyl-amino]-prop-1-ynyl}-4-oxo-4,5-dihydro-3H-pyrrolo[2,3-c]quinoline-1-ethyl carboxylate]
1 to 10 | CCOC(=O)c1ccc(NS(=O)(=O)c2ccc3[nH]c(=O)c4[nH]cc(C(=O)OCC)c4c3c2)cc1 [Compound 14, 8-(4-Ethoxycarbonyl-phenylsulfamoyl)-4-oxo-4,5-dihydro-3H-pyrrolo[2,3-c]quinoline-1-ethyl carboxylate]

SMILES | IC50 [µM]
CC(C)(C)OC(=O)N[C@H]1CCN(S(=O)(=O)c2ccc3[nH]c(=O)c4[nH]cc(C(=O)O)c4c3c2)C1 [Compound 165, (S)-8-(3-tert-Butoxycarbonylamino-pyrrolidine-1-sulfonyl)-4-oxo-4,5-dihydro-3H-pyrrolo[2,3-c]quinoline-1-carboxylic acid] | 10 to 100
CCCOC(=O)c1c[nH]c2c(=O)[nH]c3ccc(S(=O)(=O)N4CCC(NC)C4)cc3c12 (centres unmarked) [Compound 168, 8-(3-Methylamino-pyrrolidine-1-sulfonyl)-4-oxo-4,5-dihydro-3H-pyrrolo[2,3-c]quinoline-1-propyl carboxylate hydrochloride] | 0.1 to 1
C#CCN(CCN(C)C(=O)OC(C)(C)C)S(=O)(=O)c1ccc2[nH]c(=O)c3[nH]cc(C(=O)OCCC)c3c2c1 [Compound 157, 8-{[2-(tert-Butoxycarbonyl-methyl-amino)-ethyl]-prop-2-ynyl-sulfamoyl}-4-oxo-4,5-dihydro-3H-pyrrolo[2,3-c]quinoline-1-propyl carboxylate] | < 0.1
